Test results as given in patent EP1227795B1, “LIPID COMPLEX OF ALKYCYCLINES” (priority 1999, dated 2001).

Assay: water solubility of the alkycycline
Assay type: physicochemical
Experimental: The alkycycline of formula Ia as defined above is quite water insoluble (less than 0.1 mg/ml). This makes it difficult to be formulated as a sterile, storage stable, dosage form. Additionally, the alkycycline is unstable: • after twelve months at 4°C the decomposition of the bulk product is about from 4 to 6%. This percentage of decomposition is absolutely not acceptable for a pharmaceutical product.

In the case of “4-demethoxy-3'-deamino-3'-aziridinyl-4'-methansulfonyl daunorubicin [Ia]”, the water solubility is reported as “less than 0.1 mg/ml”.
